The values that follow come from ChEMBL document CHEMBL1201862, “PubChem BioAssay data set” (2004).

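In this assay, cells in 96-well plates receive the compound at five concentrations for 48 hours. Endpoints are linearly interpolated between the surrounding concentrations. At the GI50, growth is halved.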 Calls of active or inactive are those of the source. Cut-off read from the data, not from the text of the source: active = GI50 up to about 1.1 µM and inactive = higher.

Among the test systems are 786-0; A498; ACHN; BT-549; CCRF-CEM; EKVX; HOP-62; M14; Malme-3M; NCI-H226; NCI-H23; NCI-H460; OVCAR-4; OVCAR-8; PC-3; SF-539; SR; UACC-62; UO-31; MDA-MB-231.
Holding throughout (experiment): NCI-60 cell line screen, 48 h

`NC1=C(Cl)C(=O)c2ccccc2C1=O`: the GI50 with 786-0 was 7.4 µM (inactive); in the assay with A498 it was 19.9 µM (inactive); in the assay on ACHN, 9.27 µM (inactive); with BT-549 it was 2.47 µM (inactive); with CCRF-CEM it was 5.15 µM (inactive); in the assay with EKVX, 14.7 µM (inactive). The GI50 in the assay on HOP-62 is 11.4 µM (inactive); in the assay with M14, 0.893 µM (active); with Malme-3M it was 1.38 µM (inactive); in the assay with NCI-H226, 7.35 µM (inactive); in the assay on NCI-H23, 1.77 µM (inactive); with NCI-H460, 3.43 µM (inactive). In addition, the GI50 is 7.08 µM (inactive) in the assay with OVCAR-4; 8.34 µM (inactive) in the assay on OVCAR-8; 1.79 µM (inactive) in the assay on PC-3; 8.24 µM (inactive) with SF-539; 4.32 µM (inactive) in the assay on SR; 1.08 µM (active) in the assay on UACC-62. For the same compound, the GI50 in the assay on UO-31 is 13.7 µM (inactive).

In the case of `Oc1c(Cl)cc2cc1-c1cc(cc(Cl)c1O)CCc1c(cc(Cl)c(O)c1Cl)-c1cc(Cl)c(c(Cl)c1O)/C=C\2`, the GI50 in the assay on 786-0 is 8.36 µM (inactive); with A498 it was 14.3 µM (inactive); in the assay on ACHN it was 13.7 µM (inactive); with BT-549, 16 µM (inactive); with CCRF-CEM, 3.56 µM (inactive); in the assay on HOP-62, 7.74 µM (inactive). In addition, the GI50 with M14 was 7.23 µM (inactive); in the assay with NCI-H226, 11.5 µM (inactive); in the assay with NCI-H23 it was 13.3 µM (inactive); with NCI-H460, 4.42 µM (inactive); with OVCAR-4, 9.04 µM (inactive); with OVCAR-8, 7.91 µM (inactive). The GI50 with PC-3 was 8.3 µM (inactive); with SR, 3.91 µM (inactive); with UACC-62, 8.69 µM (inactive).

With `CC1(C)C(=O)/C=C\C(=O)C(C)(C)C(=O)/C=C\C(=O)C(C)(C)C2=CC=C(O2)C(C)(C)C(=O)/C=C\C1=O`, the GI50 in the assay on 786-0 is 2.24 µM (inactive); with A498, 16.8 µM (inactive); with ACHN, 3.63 µM (inactive); in the assay with BT-549, 11.9 µM (inactive); in the assay with CCRF-CEM, 0.368 µM (active); in the assay with EKVX, 5.21 µM (inactive). Besides, the GI50 in the assay with HOP-62 is 24.3 µM (inactive); with M14 it was 2.21 µM (inactive); with Malme-3M, 1.91 µM (inactive); with NCI-H226, 13.6 µM (inactive); with NCI-H23 it was 5.55 µM (inactive); in the assay on NCI-H460, 20.5 µM (inactive). In addition, the GI50 in the assay on OVCAR-4 was 6.61 µM (inactive); in the assay on OVCAR-8, 4.44 µM (inactive); in the assay with PC-3 it was 15.8 µM (inactive); with SF-539, 9.62 µM (inactive); with SR it was 1.22 µM (inactive); with UACC-62, 5.07 µM (inactive). For the same compound, in the assay with UO-31, the GI50 is 14.5 µM (inactive).

Turning to `COC(CO[Si](C)(C)N[Si](C)(C)OCC(OC)c1ccccc1)c1ccccc1` (centres undefined), the GI50 in the assay on 786-0, in the assay on A498, with ACHN, in the assay with BT-549, in the assay on CCRF-CEM and in the assay on EKVX was > 100 µM (inactive) throughout. Besides, the GI50 in the assay on HOP-62, in the assay with M14, in the assay with NCI-H226, in the assay on NCI-H23, in the assay on NCI-H460 and with OVCAR-4 was > 100 µM (inactive) throughout. Further, the GI50 with OVCAR-8, with PC-3, in the assay on SR, in the assay with UACC-62 and in the assay on UO-31 was > 100 µM (inactive) each time.

For the compound `CNC(=O)O/N=C1\N(C)CN(c2ccccc2)C12CCN(CCCC(=O)c1ccc(F)cc1)CC2`, the GI50 in the assay with 786-0 was 75.5 µM (inactive); in the assay on A498 it was 40 µM (inactive); in the assay on ACHN, 83.8 µM (inactive); in the assay with CCRF-CEM, 99.3 µM (inactive); with EKVX, > 100 µM (inactive); with HOP-62 it was 39.4 µM (inactive). Further, the GI50 was 16.9 µM (inactive) with M14; 33.5 µM (inactive) with MDA-MB-231; 32.7 µM (inactive) in the assay with Malme-3M; > 100 µM (inactive) in the assay with NCI-H226; > 100 µM (inactive) in the assay with NCI-H23; 44.1 µM (inactive) with NCI-H460. Besides, the GI50 was 27.6 µM (inactive) in the assay on OVCAR-4; > 100 µM (inactive) in the assay on OVCAR-8; > 100 µM (inactive) with PC-3; 50.6 µM (inactive) in the assay with SF-539; 39.3 µM (inactive) with SR; > 100 µM (inactive) in the assay with UACC-62. The GI50 in the assay with UO-31 is 90.8 µM (inactive).

Take `CCCC(Sc1nc(N)nc2nc[nH]c12)C(=O)O` (centres undefined): the GI50 is 92.5 µM (inactive) in the assay on 786-0; > 100 µM (inactive) with A498; > 100 µM (inactive) in the assay on ACHN; > 100 µM (inactive) in the assay on BT-549; 81.5 µM (inactive) with CCRF-CEM; > 100 µM (inactive) with HOP-62. The GI50 was 53.2 µM (inactive) in the assay on M14; > 100 µM (inactive) in the assay with MDA-MB-231; > 100 µM (inactive) with Malme-3M; > 100 µM (inactive) in the assay on NCI-H226; > 100 µM (inactive) with NCI-H23; 67 µM (inactive) in the assay with NCI-H460. Besides, the GI50 is > 100 µM (inactive) in the assay with OVCAR-4; 56.2 µM (inactive) in the assay on OVCAR-8; > 100 µM (inactive) in the assay on PC-3; 36.6 µM (inactive) in the assay on UACC-62; 65.2 µM (inactive) in the assay on UO-31.

`O=C1CCC2(CC1CCSc1ccccc1)OCCO2` (centres undefined): the GI50 in the assay with 786-0, in the assay with A498, in the assay with ACHN, with CCRF-CEM, in the assay with EKVX and with HOP-62 was > 100 µM (inactive) throughout. The GI50 with M14, in the assay on MDA-MB-231, in the assay on Malme-3M, in the assay with NCI-H226, with NCI-H23 and in the assay on NCI-H460 was > 100 µM (inactive) throughout. Besides, the GI50 with OVCAR-4, in the assay with OVCAR-8, in the assay on PC-3, in the assay with SF-539, with SR and with UACC-62 was > 100 µM (inactive) throughout. For the same compound, in the assay on UO-31, the GI50 was > 100 µM (inactive).

Regarding `O=C1CCCC2=C1CC1=C(CCCC1=O)N2c1ccccc1C(=O)O`, the GI50 in the assay with 786-0, with A498, with ACHN, in the assay on BT-549, in the assay on CCRF-CEM and in the assay on EKVX was > 100 µM (inactive) each time. Also, the GI50 with M14, in the assay with NCI-H226, in the assay with NCI-H23, with NCI-H460, in the assay on OVCAR-4 and with OVCAR-8 was > 100 µM (inactive) each time. In addition, the GI50 with PC-3, in the assay on SF-539, in the assay on SR, with UACC-62 and in the assay on UO-31 was > 100 µM (inactive) throughout.

Take `COc1cc(-c2coc3c(OC)c(OC4OC(COC5OC(C)C(O)C(O)C5O)C(O)C(O)C4O)c(OC)c(O)c3c2=O)cc(C)c1O` (centres undefined): the GI50 in the assay on 786-0 was 0.178 µM (active); with ACHN it was 21.2 µM (inactive); with BT-549, 13.9 µM (inactive); with CCRF-CEM it was 5.93 µM (inactive); in the assay on EKVX, 17.2 µM (inactive); with HOP-62, 22.1 µM (inactive). For the same compound, the GI50 in the assay with M14 was 15.5 µM (inactive); in the assay with MDA-MB-231, 32.5 µM (inactive); in the assay with Malme-3M it was 18.3 µM (inactive); in the assay on NCI-H23 it was 13.1 µM (inactive); in the assay with NCI-H460, 23.2 µM (inactive); in the assay with OVCAR-4, 18.9 µM (inactive). The GI50 is 23.6 µM (inactive) in the assay with OVCAR-8; 24.8 µM (inactive) with PC-3; 21.3 µM (inactive) in the assay with SF-539; 14.3 µM (inactive) in the assay on UACC-62; 16.6 µM (inactive) in the assay on UO-31.

As to `Cc1cccc2c(=O)c3cccc(CC(=O)O)c3oc12`, the GI50 in the assay on 786-0, in the assay on A498, in the assay on ACHN, in the assay with CCRF-CEM, in the assay on EKVX and with HOP-62 was > 100 µM (inactive) throughout. In addition, the GI50 in the assay on M14, in the assay on MDA-MB-231, in the assay on Malme-3M, in the assay with NCI-H226, in the assay with NCI-H23 and with NCI-H460 was > 100 µM (inactive) throughout. The GI50 in the assay on OVCAR-4, in the assay with OVCAR-8, with PC-3, with SF-539, in the assay on SR and in the assay with UACC-62 was > 100 µM (inactive) throughout. In addition, the GI50 in the assay on UO-31 was > 100 µM (inactive).

`O=C(O)c1cc(NCc2cc(O)ccc2O)ccc1O` [LAVENDUSTIN C]: the GI50 in the assay on 786-0 is 45.3 µM (inactive); in the assay on A498 it was > 100 µM (inactive); in the assay on ACHN it was > 100 µM (inactive); in the assay on BT-549, > 100 µM (inactive); with CCRF-CEM, 10.6 µM (inactive); in the assay on EKVX, > 100 µM (inactive). The GI50 in the assay on HOP-62, in the assay on MDA-MB-231, with NCI-H226, in the assay on NCI-H23, with NCI-H460 and with OVCAR-4 was > 100 µM (inactive) in each case. The GI50 in the assay on PC-3 is > 100 µM (inactive); in the assay with SF-539, > 100 µM (inactive); with UACC-62 it was > 100 µM (inactive); with UO-31, 67.1 µM (inactive).
